Paper PMC11358882, “Neuroprotective Effects of Phenolic Constituents from Drynariae Rhizoma” (Pharmaceuticals, 2024)

Target: T1, Aβ1-42 (Homo sapiens, UniProt P05067)
T1 construct: Aβ1-42 used for the Th T assay was purchased from GL Biochem, Shanghai, China; purchased GL Biochem, Shanghai, China
Assay: Thioflavin T assay, Aβ aggregation
Assay type: biochemical
Settings: 24 h, Aβ1-42 20 μM
Method: The Th T assay was conducted to assess the aggregation of Aβ into oligomers and fibrils. Aβ1-42 was dissolved in DMSO at a concentration of 1 mg/mL, and test samples were also dissolved in DMSO. Aβ1-42 (20 μM) was incubated with various concentrations of test samples at 37 °C for 24 h to evaluate the effects of test samples on Aβ aggregation. Subsequently, 3 μM of Th T was added, and fluorescence was measured after 30 min using an E-max precision microplate reader with excitation at 442 nm and emission at 485 nm (Epoch, BioTek, Winooski, VT, USA). Aβ treated with DMSO only served as a control, and each assay was performed in triplicate. Then, the Th T assay was performed to assess the effects of test samples on the disaggregation of preformed Aβ aggregates. Briefly, 20 μM of Aβ1-42 was incubated at 37 °C for 24 h. Various concentrations of test samples were then added and incubated at 37 °C for an additional 24 h. Subsequently, 3 μM of Th T was added, and fluorescence was measured after 30 min using an E-max precision microplate reader with excitation at 442 nm and emission at 485 nm (Epoch, BioTek, Winooski, VT, USA). Aβ treated with DMSO only served as a control, and each assay was performed in triplicate.

T1 sequence (P05067 672-713 limits assumed): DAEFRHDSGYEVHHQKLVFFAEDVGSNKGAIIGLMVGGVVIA

Question: For `C[C@@H]1O[C@@H](Oc2c(-c3ccc(O)cc3)oc3cc(O[C@@H]4O[C@H](CO)[C@@H](O)[C@H](O)[C@H]4O)cc(O)c3c2=O)[C@H](O)[C@H](O)[C@H]1O` [Compound 6, kaempferol 3-O-rhamnoside 7-O-glucoside], which “decrease of Aβ aggregation relative to DMSO-treated control” value (1.0 μM) is on record?
Answer: approximately 40%

Question: For `O=c1c(O[C@@H]2O[C@H](CO)[C@@H](O)[C@H](O)[C@H]2O)c(-c2ccc(O)cc2)oc2cc(O[C@@H]3O[C@@H](CO)[C@H](O)[C@H]3O)cc(O)c12` [Compound 7, kaempferol 3-o-b-d-glucopyranoside-7-o-a-L-arabinofuranoside], which “Aβ aggregation reduced to % of the levels in the DMSO-treated control” value (0.5 μM) is on record?
Answer: ~55%

Question: What about the “decrease of Aβ aggregation relative to DMSO-treated control” value (0.5 μM) of the same molecule?
Answer: 55%

Question: And the “Aβ aggregation reduced to % of the levels in the DMSO-treated control” value (1.0 μM)?
Answer: approximately 80%

Question: What about the “decrease of Aβ aggregation relative to DMSO-treated control” value (1.0 μM) of the same molecule?
Answer: ~80%
